Source: PubChem BioAssay (NCI)
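48-hour exposure; five concentrations; linearly interpolated endpoints. TGI: total growth inhibition.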

Columns and labels:
Assay in all cases: DTP human tumour cell line panel, 48 h
ACHN renal = tested on: ACHN renal
CAKI-1 renal = tested on: CAKI-1 renal
HCT-15 colon = tested on: HCT-15 colon
HL-60(TB) leukemia = tested on: HL-60(TB) leukemia
HOP-62 NSCLC = tested on: HOP-62 NSCLC
HOP-92 NSCLC = tested on: HOP-92 NSCLC
HS 578T breast = tested on: HS 578T breast
MALME-3M melanoma = tested on: MALME-3M melanoma
MDA-N = tested on: MDA-N
NCI/ADR-RES ovarian = tested on: NCI/ADR-RES ovarian
OVCAR-3 ovarian = tested on: OVCAR-3 ovarian
OVCAR-8 ovarian = tested on: OVCAR-8 ovarian
RPMI-8226 leukemia = tested on: RPMI-8226 leukemia
SF-539 CNS = tested on: SF-539 CNS
SK-MEL-28 melanoma = tested on: SK-MEL-28 melanoma
SR leukemia = tested on: SR leukemia
SW-620 colon = tested on: SW-620 colon
U251 CNS = tested on: U251 CNS

Structure (SMILES)	TGI (ACHN renal) [µM]	TGI (CAKI-1 renal) [µM]	TGI (HCT-15 colon) [µM]	TGI (HL-60(TB) leukemia) [µM]	TGI (HOP-62 NSCLC) [µM]	TGI (HOP-92 NSCLC) [µM]	TGI (HS 578T breast) [µM]	TGI (MALME-3M melanoma) [µM]	TGI (MDA-N) [µM]	TGI (NCI/ADR-RES ovarian) [µM]	TGI (OVCAR-3 ovarian) [µM]	TGI (OVCAR-8 ovarian) [µM]	TGI (RPMI-8226 leukemia) [µM]	TGI (SF-539 CNS) [µM]	TGI (SK-MEL-28 melanoma) [µM]	TGI (SR leukemia) [µM]	TGI (SW-620 colon) [µM]	TGI (U251 CNS) [µM]
CCN(CC)CCn1nc(N)c2nc3ccccc3nc21	> 100	> 100	> 100	> 100	> 100	> 100	> 100	> 100	> 100	> 100	> 100	> 100	> 100	> 100	> 100	> 100	> 100	> 100
O=C1CN(C(=O)C2CCCN2C(=O)C2CCCN2)C(=O)CN1 (stereo not given)	> 100	> 100	> 100	> 100	> 100	> 100	> 100	> 100	> 100	> 100	> 100	> 100	> 100		> 100	> 100	> 100	> 100
CC(C)(C)OC(=O)CN1C(=O)CC1CC(=O)c1ccccc1 (stereo not given)	41.7	49.4	37.5	47.9	34.2	> 100	84.2	31.9	42.2	> 100	33.5	32.6	15.3	34.9	36.7	19.1	31.6	29.4
O=C1CSSCC(=O)Nc2ccccc2N1	> 100	> 100	> 100	> 100	> 100	> 100	> 100	> 100	> 100	> 100	> 100	> 100	> 100	> 100	> 100	> 100	> 100	> 100
COc1ccccc1N(CN1C(=O)CCC1C(=O)O)C(C)=O (stereo not given)	> 100	> 100	> 100	> 100	> 100	> 100	> 100	> 100	> 100	> 100	> 100	> 100	> 100	> 100	> 100	> 100	> 100	> 100
CCOC(=O)N(NC(=O)NC(C)C)c1ccccc1	> 100	> 100	> 100	> 100	> 100	> 100	> 100	> 100	> 100	> 100	> 100	> 100		> 100	> 100	> 100	> 100	> 100
O=c1[nH]nc(-c2ccccc2)n1-c1ccncc1	> 100	> 100	> 100	> 100	> 100	> 100	> 100	> 100	> 100	> 100	> 100	> 100	> 100	> 100	> 100	> 100	> 100	> 100
c1ccc(-c2cn3c(nc4ccccc43)c(-c3ccccc3)n2)cc1	> 100	> 100	> 100	> 100	27.9	62	> 94.2	> 100	> 31.6	> 100	> 100	40.3	> 100	> 100	> 100	> 100	> 100	32.1
CN(C)c1ccc(/C=C2/NC(=S)NC2=O)cc1	> 100	> 100	> 100	51	> 100	> 100	> 100	> 100	> 100	> 100	> 100	> 100	> 100	> 100	> 100	> 100	> 100	> 100
O=C(Cn1c2c(c3ccccc31)CCCC2)N1CCCC1	> 100	> 100	> 100	> 100	> 100	> 100	87.2	> 100	> 100	> 100	> 100	> 100	> 100	> 100	> 100	> 100	> 100	
CCOC(=O)C1(Cc2ccccc2)C=CN(C(=O)c2ccccc2)C=C1	> 100	> 100	> 100	45.7	> 100	80	> 100	88.9	65.2	> 100	> 100	> 100	48.6	> 100	> 100	67.5	> 100	> 100
COc1cc(/C=N\N(C)C)cc(/C=N/N(C)C)c1O	87.9	52.1	> 100	> 100	> 100	61.8	20.9	56	> 100	> 100	53.4		50.2	37.1	59.7	32.3	> 100	74.8
CC1(C)C2CCC(CN)(C2)C1N (stereo not given)	> 100	> 100	> 100	> 100	> 100	> 100	> 100	> 100	> 100	> 100	> 100	> 100	> 100	> 100	> 100	> 100	> 100	> 100
